# ChEMBL document CHEMBL3396995, “Synthesis and biological evaluation of novel pyrrolidine acid analogs as potent dual PPARα/γ agonists” (Bioorg Med Chem Lett, 2015)
# How the values were obtained:
# [1] = target: T1, Peroxisome proliferator-activated receptor gamma (Homo sapiens, UniProt P37231); test: Agonist activity at GAL4 tagged human PPARgamma ligand binding domain expressed in HEK293 cells by luciferase reporter gene assay; assay type: cell-based
# T1 sequence (P37231 whole entry): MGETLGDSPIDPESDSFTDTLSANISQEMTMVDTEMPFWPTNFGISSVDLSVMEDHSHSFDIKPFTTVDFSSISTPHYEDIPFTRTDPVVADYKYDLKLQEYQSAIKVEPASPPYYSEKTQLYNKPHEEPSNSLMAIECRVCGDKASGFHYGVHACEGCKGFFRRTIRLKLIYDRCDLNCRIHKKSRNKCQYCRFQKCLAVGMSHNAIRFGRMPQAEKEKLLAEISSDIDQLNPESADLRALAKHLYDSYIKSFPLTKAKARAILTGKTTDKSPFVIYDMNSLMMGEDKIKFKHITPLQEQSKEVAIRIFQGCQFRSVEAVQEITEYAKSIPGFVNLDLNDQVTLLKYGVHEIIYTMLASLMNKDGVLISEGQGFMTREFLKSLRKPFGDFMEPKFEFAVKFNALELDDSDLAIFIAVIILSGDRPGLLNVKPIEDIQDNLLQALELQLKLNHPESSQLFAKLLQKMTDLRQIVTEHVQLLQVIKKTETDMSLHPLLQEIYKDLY
# [2] = target: T2, Peroxisome proliferator-activated receptor alpha (Homo sapiens, UniProt Q07869); test: Agonist activity at GAL4 tagged human PPARalpha ligand binding domain expressed in HEK293 cells by luciferase reporter gene assay; assay type: cell-based
# T2 sequence (Q07869 whole entry): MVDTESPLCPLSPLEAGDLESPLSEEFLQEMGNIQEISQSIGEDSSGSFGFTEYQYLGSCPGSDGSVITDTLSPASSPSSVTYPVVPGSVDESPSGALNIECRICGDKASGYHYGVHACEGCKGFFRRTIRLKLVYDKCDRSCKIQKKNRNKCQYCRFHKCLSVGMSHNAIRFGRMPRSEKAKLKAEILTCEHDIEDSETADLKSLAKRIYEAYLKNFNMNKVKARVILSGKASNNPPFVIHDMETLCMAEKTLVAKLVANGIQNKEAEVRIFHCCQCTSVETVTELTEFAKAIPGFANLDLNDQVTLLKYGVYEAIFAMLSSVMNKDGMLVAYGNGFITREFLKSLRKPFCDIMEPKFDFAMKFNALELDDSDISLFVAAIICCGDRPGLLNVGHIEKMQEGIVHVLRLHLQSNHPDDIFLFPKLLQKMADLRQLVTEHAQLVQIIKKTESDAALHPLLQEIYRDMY
# [3] = target: T2, Peroxisome proliferator-activated receptor alpha; test: Binding affinity to PPARalpha (unknown origin) using fluorescein-tagged dual PPARalpha/gamma activator by homogeneous fluorescence polarization binding assay
# [4] = target: T1, Peroxisome proliferator-activated receptor gamma
# Description: Binding affinity to PPARgamma (unknown origin) using fluorescein-tagged dual PPARalpha/gamma activator by homogeneous fluorescence polarization binding assay
EC50 [1],EC50 ([2]; hek293),IC50 [3],EC50 ([2]; read-out: EC50),IC50 [4],SMILES
50 nM,Not Active,–,–,–,COc1ccc(OC(=O)N2[C@H](C(=O)O)CC[C@H]2c2ccc(OCCc3nc(-c4ccccc4)oc3C)cc2)cc1
9 nM,–,260 nM,3 nM,–,CCOC(=O)N1C[C@@H](Cc2cccc(OCCc3nc(-c4ccccc4)oc3C)c2)[C@@H](C(=O)O)C1
> 10000 nM,–,> 10000 nM,10900 nM,–,CCOC(=O)N1C[C@H](Cc2cccc(OCCc3nc(-c4ccccc4)oc3C)c2)[C@H](C(=O)O)C1
2000 nM,–,70 nM,4 nM,490 nM,Cc1oc(-c2ccccc2)nc1CCOc1cccc(C[C@@H]2CN(C(=O)Oc3ccccc3)C[C@@H]2C(=O)O)c1
13300 nM,–,660 nM,950 nM,590 nM,Cc1oc(-c2ccccc2)nc1CCOc1cccc(C[C@H]2CN(C(=O)Oc3ccccc3)C[C@H]2C(=O)O)c1
3440 nM,–,70 nM,50 nM,80 nM,Cc1oc(-c2ccccc2)nc1CCOc1cccc(C[C@@H]2CN(c3ccccc3)C[C@@H]2C(=O)O)c1
> 10000 nM,–,320 nM,680 nM,140 nM,Cc1oc(-c2ccccc2)nc1CCOc1cccc(C[C@H]2CN(c3ccccc3)C[C@H]2C(=O)O)c1
2500 nM,–,20 nM,14 nM,40 nM,Cc1oc(-c2ccccc2)nc1CCOc1cccc(C[C@@H]2CN(c3nccc(C(F)(F)F)n3)C[C@@H]2C(=O)O)c1
> 10000 nM,–,1120 nM,> 10000 nM,110 nM,Cc1oc(-c2ccccc2)nc1CCOc1cccc(C[C@H]2CN(c3nccc(C(F)(F)F)n3)C[C@H]2C(=O)O)c1
> 10000 nM,–,> 10000 nM,> 10000 nM,1530 nM,Cc1oc(-c2ccccc2)nc1CCOc1ccc(C[C@H]2CN(c3nccc(C(F)(F)F)n3)C[C@H]2C(=O)O)cc1
> 30000 nM,–,1120 nM,1000 nM,3570 nM,Cc1oc(-c2ccccc2)nc1CCOc1ccc(C[C@H]2CN(c3nccc(C(F)(F)F)n3)C[C@@H]2C(=O)O)cc1
> 30000 nM,–,> 50000 nM,4410 nM,1160 nM,Cc1oc(-c2ccccc2)nc1CCOc1ccc(C[C@@H]2CN(c3nccc(C(F)(F)F)n3)C[C@H]2C(=O)O)cc1
> 10000 nM,–,5550 nM,2870 nM,–,CCOC(=O)N1C[C@@H](Cc2cccc(OCCc3nc(-c4ccccc4)oc3C)c2)[C@@H](CC(=O)O)C1
50 nM,–,740 nM,30 nM,30 nM,Cc1oc(-c2ccccc2)nc1CCOc1ccc(C[C@@H]2CN(c3nccc(C(F)(F)F)n3)C[C@@H]2C(=O)O)cc1 (racemic)
24000 nM,–,> 10000 nM,20000 nM,> 10000 nM,CCOC(=O)N1C[C@H](C(=O)O)[C@H](c2cccc(OCCc3nc(-c4ccccc4)oc3C)c2)C1 (racemic)
5650 nM,–,> 10000 nM,1650 nM,> 10000 nM,Cc1oc(-c2ccccc2)nc1CCOc1cccc([C@@H]2CN(C(=O)Oc3ccccc3)C[C@@H]2C(=O)O)c1 (racemic)
> 32000 nM,–,> 10000 nM,> 15000 nM,> 10000 nM,CCOC(=O)N1C[C@H](C(=O)O)[C@H](c2ccc(OCCc3nc(-c4ccccc4)oc3C)cc2)C1 (racemic)
4180 nM,–,> 10000 nM,> 15000 nM,4470 nM,Cc1oc(-c2ccccc2)nc1CCOc1ccc([C@@H]2CN(C(=O)Oc3ccccc3)C[C@@H]2C(=O)O)cc1 (racemic)
> 32000 nM,–,> 10000 nM,> 15000 nM,> 10000 nM,CCOC(=O)N1C[C@H](C(=O)O)[C@@H](c2ccc(OCCc3nc(-c4ccccc4)oc3C)cc2)C1 (racemic)
10 nM,–,2860 nM,2580 nM,5860 nM,Cc1oc(-c2ccccc2)nc1CCOc1ccc([C@H]2CN(C(=O)Oc3ccccc3)C[C@@H]2C(=O)O)cc1 (racemic)

EC50 [1],EC50 ([2]; hek293),IC50 [3],EC50 ([2]; read-out: EC50),IC50 [4],SMILES
20 nM,–,990 nM,1130 nM,910 nM,CCOC(=O)N1C[C@H](CC(=O)O)[C@H](c2cccc(OCCc3nc(-c4ccccc4)oc3C)c2)C1 (racemic)
4800 nM,–,4020 nM,3550 nM,240 nM,Cc1oc(-c2ccccc2)nc1CCOc1cccc([C@@H]2CN(C(=O)Oc3ccccc3)C[C@@H]2CC(=O)O)c1 (racemic)
9680 nM,–,> 10000 nM,8100 nM,5460 nM,CCOC(=O)N1C[C@H](CC(=O)O)[C@@H](c2cccc(OCCc3nc(-c4ccccc4)oc3C)c2)C1 (racemic)
14600 nM,–,> 10000 nM,11700 nM,1820 nM,Cc1oc(-c2ccccc2)nc1CCOc1cccc([C@H]2CN(C(=O)Oc3ccccc3)C[C@@H]2CC(=O)O)c1 (racemic)
–,–,> 10000 nM,–,> 10000 nM,CCOC(=O)N1C[C@H](CC(=O)O)[C@H](c2ccc(OCCc3nc(-c4ccccc4)oc3C)cc2)C1 (racemic)
4180 nM,–,> 15000 nM,> 15000 nM,8310 nM,Cc1oc(-c2ccccc2)nc1CCOc1ccc([C@@H]2CN(C(=O)Oc3ccccc3)C[C@@H]2CC(=O)O)cc1 (racemic)
750 nM,–,170 nM,10 nM,–,CCOC(=O)N1C[C@@H](Cc2cccc(OCCc3nc(-c4ccccc4)oc3C)c2)[C@@H](C(=O)O)C1 (racemic)
1250 nM,–,220 nM,10 nM,1330 nM,Cc1oc(-c2ccccc2)nc1CCOc1cccc(C[C@@H]2CN(C(=O)Oc3ccccc3)C[C@@H]2C(=O)O)c1 (racemic)
2850 nM,–,2120 nM,150 nM,–,CCOC(=O)N1C[C@H](Cc2cccc(OCCc3nc(-c4ccccc4)oc3C)c2)[C@@H](C(=O)O)C1 (racemic)
6170 nM,–,3090 nM,2590 nM,3630 nM,Cc1oc(-c2ccccc2)nc1CCOc1cccc(C[C@H]2CN(C(=O)Oc3ccccc3)C[C@@H]2C(=O)O)c1 (racemic)
300 nM,–,2020 nM,6 nM,2680 nM,CCOC(=O)N1C[C@@H](Cc2ccc(OCCc3nc(-c4ccccc4)oc3C)cc2)[C@@H](C(=O)O)C1 (racemic)
3410 nM,–,40 nM,20 nM,220 nM,Cc1oc(-c2ccccc2)nc1CCOc1cccc(C[C@@H]2CN(c3ccccc3)C[C@@H]2C(=O)O)c1 (racemic)
1060 nM,–,> 10000 nM,2910 nM,2040 nM,Cc1oc(-c2ccccc2)nc1CCOc1ccc(C[C@@H]2CN(c3ncccn3)C[C@@H]2C(=O)O)cc1 (racemic)
630 nM,–,3980 nM,170 nM,450 nM,Cc1ccnc(N2C[C@@H](Cc3ccc(OCCc4nc(-c5ccccc5)oc4C)cc3)[C@@H](C(=O)O)C2)n1 (racemic)
2080 nM,–,2190 nM,2480 nM,590 nM,Cc1oc(-c2ccccc2)nc1CCOc1ccc(C[C@@H]2CN(c3nc4ccccc4o3)C[C@@H]2C(=O)O)cc1 (racemic)
> 30000 nM,–,5010 nM,1470 nM,50 nM,Cc1oc(-c2ccccc2)nc1CCOc1ccc(C[C@@H]2CN(c3nc(C(F)(F)F)co3)C[C@@H]2C(=O)O)cc1 (racemic)
710 nM,–,2690 nM,200 nM,490 nM,CCOC(=O)N1C[C@@H](CCc2cccc(OCCc3nc(-c4ccccc4)oc3C)c2)[C@@H](C(=O)O)C1 (racemic)
630 nM,–,1060 nM,8 nM,210 nM,Cc1oc(-c2ccccc2)nc1CCOc1cccc(CC[C@@H]2CN(C(=O)Oc3ccccc3)C[C@@H]2C(=O)O)c1 (racemic)
1170 nM,–,> 10000 nM,2600 nM,520 nM,Cc1oc(-c2ccccc2)nc1CCOc1cccc(CC[C@H]2CN(C(=O)Oc3ccccc3)C[C@@H]2C(=O)O)c1 (racemic)
> 10000 nM,–,2120 nM,6 nM,–,CCOC(=O)N1C[C@H](CC(=O)O)[C@@H](Cc2cccc(OCCc3nc(-c4ccccc4)oc3C)c2)C1 (racemic)
